# According to patent EP0403251A2, “Monokine activity interference” (SMITHKLINE BEECHAM CORPORATION, priority 1989, dated 1990):
# pIC50: −log10 of the molar value. “Also recorded” adds a separate entry of the source. Like-named read-outs stand apart in the source and are kept apart here.
# Legend:
# TNF [1] = experiment: In vivo endotoxin shock models (P. acnes model and/or LPS-GAL model, not specified which); set-up: species or system mice; settings: for in vivo TNF levels / protection from endotoxic induced shock: one or both of the in vivo assays (P. acnes / LPS-GAL)
# Procedure: Two models of endotoxin shock have been utilized to determine in vivo TNF activity and are described below. The actual protocoll used in the models is described in Utility Model Examples A and B set out below, i.e. P. Acnes model and LPS-GAL model.
# (§1) Briefly, D-gal ([…]) sensitizes various strains of mice to the lethal effects of endotoxin. The administration of D-gal (300-500mg/kg) intra-venously (i.v.) sensitizes the mice to doses of Lipopolysaccharide(LPS ) as low as 0.1 mg. Briefly, male C57BL/6 mice, obtained from Charles River Laboratories (Stone Ridge, New York, USA) of 6-12 weeks of age were injected i.v. with 0.1 mg of LPS from Salmonella typhosa (Difco Laboratories, Detroit, Michigan, USA) admixed with D(+)-gal (Sigma; 500 mg/kg) in 0.20-0.25 ml pyrogen-free saline. Compounds to be tested were administered at various times prior to or following the iv. injection of LPS/D-gal.
# (§2) This model is a modification of the previously described protocol for the in vivo induction of TNF as described in Haranaka et al., Cancer Immunol Immunother, 18:87-90, (1984). Treatment with Proprionibacterium Acnes (P. acnes) (1mg/animal i.p.) renders mice susceptible to the lethal effects of LPS injected 10 days later.
# (§3) P. acnes was purchased from Burroughs Wellcome (Triangle Park, North Carolina, USA), and […]of the heat-killed bacteria was administered in 0.5 ml pyrogen-free saline by intraperitoneal (i.p.) injection to male C57BL/6 mice, obtained from Charles River Laboratories (Stone Ridge, New York, USA) of 6-12 weeks of age. Ten days later, the mice were injected iv. with 1 mg LPS in 0.25 ml saline. Compounds to be tested were administered at various times prior to or following the injection of LPS. The survival of animals was monitored for 1 week.
# (§4) Plasma levels of TNF were measured using a modification of the basic sandwich ELISA method described in Winston et al., Current Protocols in Molecular Biology, Pg. 11.2.1, Ausubel et al., Ed. (1987) John Wiley and Sons, New York, USA. The Elisa employed a hampster monoclonal anti-mouse TNF (Genzyme, Boston, MA, USA) as the capture antibody and a polyclonal rabbit anti-murine TNF (Genzyme, Boston, MA, USA) as the detecting antibody. TNF levels in rat samples were calculated from a standard curve genereated with recombinant murine TNF (Genzyme, Boston, MA, USA).
# TNF [2] = experiment: Endotoxin shock in D-gal-sensitized mice (LPS-GAL model), TNF levels by ELISA and survival; assay type: in vivo; settings: for reduction of serum TNF levels: LPS-GAL Model, 100 mg/kg, Figure 4; for survival rate: LPS-GAL model, animals with endotoxic shock, Figure 5, control group 30%
# Procedure: as §1, with “The protocol used to test the compound of the method of the subject invention was essentially as has been described in Galanos et al., Proc. Nat'l Acad. Sci USA, 76:5939-43 (1979) whose disclosure is herein incorporated by reference. Briefly, D-gal” for “Briefly, D-gal”, “of LPS/D-gal. In this model, the control animals usually die 5-6 hr. following the injection of LPS, although on occasion deaths are seen between 24 and 48 hr.” for “of LPS/D-gal.”
# as §4, with “USA). TNF levels determined by ELISA correlated with levels detected by the L929 bioassay of Ruff et. al., J. Immunol. 125:1671-1677 (1980), with 1 Unit of activity in the bioassay corresponding to 70 picograms (pg) of TNF in the ELISA. The ELISA detected levels of TNF down to 25 pg/ml.” for “USA).”
# [3] = test system: IL-1 production by bacterial lipopolysaccharide (LPS)-stimulated human monocytes; settings: cited from earlier work
# TNFa = settings: Badger et al. 1989, cited from earlier work
# [4] = test system: TNFa production by monocytes; settings: Lee et al. 1988 and Badger et al. 1989; cited from earlier work
# 5-lipoxygenase = molecular target: T1, 5-lipoxygenase (Homo sapiens, UniProt P09917); settings: Lee et al. 1988; cited from earlier work
# T1 sequence (P09917 1-674): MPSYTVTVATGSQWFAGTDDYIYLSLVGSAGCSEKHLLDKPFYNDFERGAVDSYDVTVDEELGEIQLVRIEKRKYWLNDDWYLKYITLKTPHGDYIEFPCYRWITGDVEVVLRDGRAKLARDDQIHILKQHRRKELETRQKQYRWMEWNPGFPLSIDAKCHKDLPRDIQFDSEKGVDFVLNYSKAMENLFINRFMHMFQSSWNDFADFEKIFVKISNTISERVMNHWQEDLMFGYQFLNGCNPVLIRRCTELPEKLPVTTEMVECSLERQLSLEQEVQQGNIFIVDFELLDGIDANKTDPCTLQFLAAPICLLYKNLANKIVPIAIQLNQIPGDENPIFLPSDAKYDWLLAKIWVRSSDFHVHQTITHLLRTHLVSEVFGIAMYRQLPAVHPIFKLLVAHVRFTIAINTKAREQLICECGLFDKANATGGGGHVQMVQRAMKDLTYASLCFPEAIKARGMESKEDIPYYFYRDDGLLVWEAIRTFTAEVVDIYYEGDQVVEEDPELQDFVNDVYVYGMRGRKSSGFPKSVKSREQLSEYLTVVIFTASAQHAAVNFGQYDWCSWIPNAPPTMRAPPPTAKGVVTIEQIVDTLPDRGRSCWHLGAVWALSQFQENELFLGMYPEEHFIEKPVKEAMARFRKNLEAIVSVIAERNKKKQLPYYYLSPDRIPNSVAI
# cyclooxygenase = settings: Lee et al. 1988; cited from earlier work
# TNF [5] = experiment: Endotoxin shock in P. acnes-sensitized mice (P. acnes/LPS model), TNF levels by ELISA; assay type: in vivo; settings: P acnes/LPS treated mice, increased oral dosage, Figure 1
# Procedure: as §2, §3
# Plasma levels of TNF were measured using a modification of the basic sandwich ELISA method described in Winston et al., Current Protocols in Molecular Biology, Pg. 11.2.1, Ausubel et al., Ed. (1987) John Wiley and Sons, New York, USA. […] TNF levels in rat samples were calculated from a standard curve genereated with recombinant murine TNF (Genzyme, Boston, MA, USA). TNF levels determined by ELISA correlated with levels detected by the L929 bioassay of Ruff et. al., J. Immunol. […] The ELISA detected levels of TNF down to 25 pg/ml.
# [6] = test system: TNF Production by Human Monocytes; experiment: Inhibitory effect on in vitro LPS induced TNF production by human monocytes (ELISA); assay type: cell-based; settings: Monocyte; LPS (50 ng/ml) induced TNF, human peripheral blood monocytes, compound added 1 hr before LPS, 24 hours; NA - not active; read-out: IC₅₀
# Procedure: The effects of the compounds enumerated above on the in vitro production of TNF by human monocytes was examined using the following protocol..
# Bacterial lipopolysaccharide (LPS) was used to induce TNF production by human peripheral blood monocytes. TNF activity was measured by a modification of Winston et al., ELISA, described below. Human peripheral blood monocytes were isolated and purified from either fresh blood preparations from volunteer donors, from blood bank buffy coats, or from plateletpheresis residues according to the procedure of Colotta et al., J. Immunol., 132, 936 (1984). 1 X 10⁶ of such monocytes were plated in 24-well plates at a concentration of 1-2 million/ml per well. The cells were allowed to adhere for 2 hours, after which time non-adherent cells were removed by gentle washing. Test compounds were then added to the cells for 1 hour (hr) before the addition of LPS (50 ng/ml), and the cultures were incubated at 37 °C for an additional 24 hours. At the end of the incubation period, culture supernatants were removed and clarified of cells and all debris. Culture supernatants were immediately assayed for TNF levels in the manner described below.
# Levels of TNF were mesured using a modification of the basic sandwich ELISA assay method described in Winston et al., Current Protocols in Molecular Biology. Page 11.2.1, Ausubel et al., Ed. (1987) John Wiley and Sons, New York, USA The Elisa employes a murine monoclonal anti-human TNF antibody, described below, as the capture antibody and a polyclonal rabbit anti-human TNF , described below, as the second antibody. For detection, a peroxidase-conjgated goat anti-rabbit antibody (Boehringer Mannheim, Indianopolis, Indiana, USA, Catalog #605222) was added followed by a substrate for peroxidase (1mg/ml orthophenylenediamine with 0.1% urea peroxide). TNF levels in samples were calculated from a standard curve genereated with recombinant human TNF produced in E. Coli (obtained from SmithKline Beecham Pharmaceuticals, King of Prussisa, PA, USA).
# Monoclonal antibodies to human TNF were prepared from spleens of BALB/c mice immunized with recombinant human TNF using a modification of the method of Kohler and Millstein, Nature 256: 495(1975), the entire disclosure of which is hereby incorporated by reference. Polyclonal rabbit anti-human TNF antibodies were prepared by repeated immunization of New Zeland White (NZW) rabbits with recombinant human TNF emulsified in complete Freund's adjuvant (DIFCO, IL., USA).
structure (smiles),measurement,setting,value
"O=S1(=O)CCn2c1nc(-c1ccc(F)cc1)c2-c1ccncc1 [6-(4-Fluorophenyl)-5-(4-pyridyl)-2,3-dihydroimidazo[2,1-b]thiazole-1,1-dioxide]",in vivo TNF levels,TNF [1],inhibited in vivo TNF levels
same,protection from endotoxic induced shock,TNF [1],protected the animals from endotoxic induced shock
"Fc1ccc(-c2nc3n(c2-c2ccncc2)CCS3)cc1 [Compound 1, 6-(4-Flurophenyl)-5-(4′pyridyl)-2,3-dihydroimidazo[2,1-b]-thiazole]",reduction of serum TNF levels,TNF [2],reduction of serum TNF levels
same,survival rate,TNF [2],100%
same,TNF production,"TNF [2]; LPS-Gal mouse model, i.p. injection, Figure 3",inhibitis TNF production
same,protection from the lethal effects of endotoxin shock,TNF [1]; P. Acnes model and LPS-GAL model,protection from the lethal effects of endotoxin shock
same,in vivo TNF levels,TNF [1],reduce the in vivo level of tumor necrosis factor (TNF)
same,IL-1 production,"[3]; Lee et al. 1988, listed as 5-(4-pyridyl)-6(4-fluorophenyl)-2,3-dihydroimidazo(2,1-B)-thiazole",inhibit
same,IL-1 production,"[3]; Lee et al. 1988, listed as 5-(4-pyridyl)-6(4-fluorophenyl)-2,3-dihydroimidazo(2,1-B)thiazole",potent inhibitor
same,circulating levels of TNFa,TNFa; mouse models of LPS-induced shock,inhibition of circulating levels of TNFa
same,protection against LPS-induced shock,TNFa; two mouse models,protection
same,TNFa production by monocytes,[4],inhibit
same,5-lipoxygenase-mediated arachidonate metabolism,5-lipoxygenase,inhibits
same,cyclooxygenase-mediated arachidonate metabolism,cyclooxygenase,inhibits
"C[S+]([O-])c1ccc(-c2nc3n(c2-c2ccncc2)CCC3)cc1 (stereo not drawn) [Compound 2, 2-(4-Methylsulfoxyphenyl)3-(4-pyridyl)-6,7-dihydro[5H]-pyrrolo-[1,2-a]imidazole]",serum TNF levels,TNF [5],reduction in serum TNF levels
same,reduction of serum TNF levels,TNF [2],reduction of serum TNF levels
same,survival rate,TNF [2],100%
same,in vivo TNF levels,TNF [1],in vivo activity; also recorded: reduce the in vivo level of tumor necrosis factor (TNF)
"CSc1ccc(-c2nc3n(c2-c2ccncc2)CCC3)cc1 [Compound 3, 2-(4-methylthiophenyl)-3-(4-pyridyl)-6,7-dihydro-[5H]-pyrrolo[1,2-a]-imidazole]",pIC50,[6],6.00
"COc1ccc(-c2nc3n(c2-c2ccncc2)CCC3O)cc1 (stereo not drawn) [Compound 8, 5,6-dihydro-2-(4-methoxyphenyl)-3-(4-pyridinyl)-[7H]-pyrrolo[1,2-a]-imidazole-7-ol]",pIC50,[6],6.00
"CC(=O)OCSc1ccc(-c2nc3n(c2-c2ccncc2)CCC3)cc1 [Compound 9, 2-(4-Acetoxymethylthiophenyl)3-(4-pyridyl)-6,7-dihydro[5H]pyrrolo-[1,2-a]-imidazole]",pIC50,[6],5.52
"COc1ccc(-c2nc3n(c2-c2ccncc2)CCC3)cc1 [Compound 10, 2-(4-Methoxyphenyl)-3-(4-pyridyl)-6,7-dihydro-[5H]-pyrrolo-[1,2-a]imidazole]",pIC50,[6],6.30
"O=S1(=O)CCn2c1nc(-c1ccc(F)cc1)c2-c1ccncc1 [Compound 14, 6-(4-Fluorophenyl)-5-(4-pyridyl)-2,3-dihydroimidazo[2,1-b]thiazole-1,1-dioxide]",pIC50,[6],5.05
"CC[S+]([O-])c1ccc(-c2nc3n(c2-c2ccncc2)CCC3)cc1 (stereo not drawn) [Compound 15, 2-(4-Ethylsulfinylphenyl)-3-(4-pyridyl)-6,7-dihydro[5H]pyrrolo[1,2-a]imidazole]",pIC50,[6],5.15
same,in vivo TNF levels,TNF [1],inhibited in vivo TNF levels
same,protection from endotoxic induced shock,TNF [1],protected the animals from endotoxic induced shock
"CSc1ccc(-c2nc3n(c2-c2ccnc(C)c2)CCC3)cc1 [Compound 16, 2-(4-Methylthiophenyl)-3-[4-(2-methylpyridyl)]-6,7-dihydro[5H]pyrrolo-[1,2-a]imidazole]",in vivo TNF levels,TNF [1],inhibited in vivo TNF levels
